According to patent US5504213A, “Benzofuranyl-and-thiophenyl-alkanecarboxyclic acid derivatives” (Bayer Aktiengesellschaft, priority 1993, dated 1996):

Legend:
[1] = system: FMLP-induced skin oedema of guinea-pigs; assay: Effect of orally administered compounds on the FMLP-induced skin oedema of guinea-pigs in vivo; conditions: guinea pig, 25 mg/kg
Protocol: 6. Effect of orally administered compounds on the FMLP-induced skin oedema
of guinea-pigs in vivo-Test's p.o.
Guinea-pits (600-800 g) were fasted overnight and orally treated with vehicle ([…]; […]) 40 minutes later the animals were anasthetized with pentobarbitone sodium (40 mg/kg; i.p.) and 0.6 ml of a mixture of pontamine sky blue (5% w/v) and ^125 I-HSA (1 μci/animal) was injected (i.V.). 90 minutes after oral pretreatment FMLP (50 μg/site) was injected (i.d.) at 4 different sites, histamine (1 μg/site) and vehicle (100 μl, 1% DMSO v/v in Hanks buffered salt solution) were both injected (i.d.) at 2 different sites.
The responses were allowed to develop for 30 minutes before the animal was sacrificed and a blood sample taken.
Skin sites and plasma samples were counted for 1 minute on a gamma counter. The degree of oedema was calculated as μl plasma/skin site.
Statistical analysis was carried out by a Mann-Whitney U-test on the mean of the 4 values of μl Plasma obtained for FMLP/animal.

[2] = system: FMLP-induced skin oedama of guinea pigs; assay: Effect of intravenously administered compounds on the FMLP-induced skin oedema of guinea pigs; format: in vivo; conditions: guinea pig, 1 mg/kg
Protocol: 5. Effect of intravenously administered compounds on the FMLP-induced skin oedama of guinea pigs.
Guinea-pigs (600-800 g) were anaesthetized with pentobarbitone sodium (40 mg/kg, i.p.) and injected (i.V.) with a 0.5 ml mixture of pentamine sky blue (5% W/V) and ^125 I-HSA ([…]). 10 minutes later 3 intradermal injections of FMLP (10 μg/site), 1 injection of histamine (1 μg/site) and 1 injection of vehicle (100 μl of 0.2% DMSO V/V in Hanks Buffered salt solution) were made on the left hand side of the animal (preinjection sites). 5 minutes later the drug (1 ml/kg) or the vehicle (50% PEG 400 V/V in distilled water, 1 ml/kg) was administered (i.V.). 10 minutes later an identical pattern of intradermal injections was made on the opposite flank of the animal (post-injection sites). These responses were allowed to develop for 15 minutes before the animal was sacrificed and a blood sample taken.
Skin sites and plasma samples were counted for 1 minute on a gamma counter and the degree of oedema calculated as μl plasma/skin site. Statistical analysis was done by a paired t-test on the mean of the 3 pre-injection site values of μl plasma obtained for FMLP/animal. The percentage inhibition of drug or vehicle was calculated as follows [formula]

PMN cyclic AMP = assay: Measurement of PMN cyclic AMP concentration (human PMN, FMLP-stimulated); format: cell-based; conditions: 4×10^-8 M FMLP, control 100, expressed as percentage of vehicle control, read-out: % elevation of cAMP at 1 μM (control 100)
Protocol: 1. Preparation of human PMN
Blood was taken from healthy subjects by venous puncture and neutrophils were purified by dextran sedimentation and resuspended in the buffered medium.
3. Measurement of PMN cyclic AMP concentration
The compounds according to the invention were incubated with 3.7×10^6 PMN for 5 min at 37° C. before addition of 4×10^-8 M FMLP. After 6 min protein was precipitated by the addition of 1% v/v conc. HCl in 96% v/v ethanol containing 0.1 mM EDTA. After centrifugation the ethanolic extracts were evaporated to dryness under N2 and resuspended in 50 mM Tris/HCl pH 7.4 containing 4 mM EDTA. The cyclic AMP concentration in the extracts was determined using a cyclic AMP binding protein assay supplied by Amersham International plc. Cyclic AMP concentrations were expressed as percentage of vehicle containing control incubations.

COC(=O)CCc1c(C(=O)c2ccc(Cl)cc2)oc2cc(O)ccc12 [Example 30]
% inhibition (FMLP-induced skin oedema, p.o.) [1]: 46%
% inhibition (FMLP-induced skin oedema, i.v.) [2]: 40.0%
activity at 1 µM (PMN cyclic AMP): 394%
